Values quoted from earlier work as cited in PMC5290737, “Surface mediated cooperative interactions of drugs enhance mechanical forces for antibiotic action” (Scientific Reports, 2017).

System: Staphylococcus aureus, enterococcus faecalis and enterococcus faecium
Set-up: method as in PMID 19369269
Conditions: cited from earlier work

## CN[C@H](CC(C)C)C(=O)N[C@H]1C(=O)N[C@@H](CC(N)=O)C(=O)N[C@H]2C(=O)N[C@H]3C(=O)N[C@H](C(=O)N[C@H](C(=O)O)c4cc(O)cc(O)c4-c4cc3ccc4O)[C@H](O)c3ccc(c(Cl)c3)Oc3cc2cc(c3O[C@@H]2O[C@H](CO)[C@@H](O)[C@H](O)[C@H]2O[C@H]2C[C@](C)(N)[C@H](O)[C@H](C)O2)Oc2ccc(cc2Cl)[C@H]1O [Van, vancomycin]
  time–kill kinetics: 6 to 24 h
